Test results published in ChEMBL document CHEMBL1177723, “Severe acute respiratory syndrome coronavirus papain-like novel protease inhibitors: design, synthesis, protein-ligand X-ray structure and biological evaluation” (J Med Chem, 2010).

Legend:
[1] = Inhibition of SARS coronavirus papain-like protease expressed in Escherichia coli; design: species or system Severe acute respiratory syndrome-related coronavirus
[2] = test system: SARS-CoV; assay: Antiviral activity against SARS coronavirus infected in african green monkey Vero E6 cells assessed as inhibition of viral replication after 48 hrs by luminescence assay; type: functional, organism-based, Severe acute respiratory syndrome-related coronavirus
[3] = Severe acute respiratory syndrome-related coronavirus, Vero, 48 h, read-out: EC50

SMILES	IC50 [1] [µM]	EC50 [2, 3] [µM]	EC50 ([2]; vero)
CC(C)(c1cccc2ccccc12)N1CCC(C(=O)NCc2ccc3c(c2)OCO3)CC1	> 200	–	–
COc1ccccc1CNC(=O)C1CCN([C@H](C)c2cccc3ccccc23)CC1	1.21	11.6	–
C[C@@H](c1cccc2ccccc12)N1CCC(C(=O)NCc2ccc3c(c2)OCO3)CC1	0.56	9.1	–
O=C(NCc1ccc2c(c1)OCO2)C1CCN(Cc2ccc3ccccc3c2)CC1	100	–	–
O=C(NCc1ccc2c(c1)OCO2)C1CCN(Cc2cccc3ccccc23)CC1	45	–	–
COc1cccc(CNC(=O)C2CCN([C@H](C)c3cccc4ccccc34)CC2)c1	0.34	9.7	–
COc1ccc(CNC(=O)C2CCN([C@H](C)c3cccc4ccccc34)CC2)cc1	0.34	10.2	–
C[C@H](c1cccc2ccccc12)N1CCC(C(=O)NCc2ccc3c(c2)OCO3)CC1	–	9.1	–
COc1ccc(CNC(=O)C2CCN(Cc3cccc4ccccc34)CC2)cc1	59.2	–	Not Active
COc1ccccc1CNC(=O)C1CCN(Cc2cccc3ccccc23)CC1	116	–	–
COc1cccc(CNC(=O)C2CCN(Cc3cccc4ccccc34)CC2)c1	30	–	–
COc1cccc(CNC(=O)C2CCN([C@@H](C)c3ccc4ccccc4c3)CC2)c1	5.8	> 25	–
COc1cccc(CNC(=O)C2CCN([C@H](C)c3ccc4ccccc4c3)CC2)c1	13.2	–	–
COc1ccccc1CNC(=O)C1CCN([C@H](C)c2ccc3ccccc3c2)CC1	34.8	–	–
COc1ccc(CNC(=O)C2CCN(C(C)c3ccc4ccccc4c3)CC2)cc1 (racemic)	> 100	–	–
